Results reported in patent publication US20110144014A1, “CYTOKINE RECEPTOR MODULATORS AND USES THEREOF” (CENTRE HOSPITALIER UNIVERSITAIRE SAINTE-JUSTINE, priority 2005, published 2011).
Where a SMILES comes first, the peptide text is derived from it. [ ]: non-standard residue; d: D form.

Assays:
IL-1R/IL-1RacP [1] = molecular target: T1, IL-1R/IL-1RacP (Sus scrofa, UniProt A0A5G2QSI4); test: Vasomotricity of piglet pial vessels (IL-1β induced vasodilation); details: vasodilation induced by IL-1
T1 construct: Slices of brain exposing the pial vessels; from tissue; host or cells: piglet brain slices, pial vessels
T1 sequence (A0A5G2QSI4 21-572): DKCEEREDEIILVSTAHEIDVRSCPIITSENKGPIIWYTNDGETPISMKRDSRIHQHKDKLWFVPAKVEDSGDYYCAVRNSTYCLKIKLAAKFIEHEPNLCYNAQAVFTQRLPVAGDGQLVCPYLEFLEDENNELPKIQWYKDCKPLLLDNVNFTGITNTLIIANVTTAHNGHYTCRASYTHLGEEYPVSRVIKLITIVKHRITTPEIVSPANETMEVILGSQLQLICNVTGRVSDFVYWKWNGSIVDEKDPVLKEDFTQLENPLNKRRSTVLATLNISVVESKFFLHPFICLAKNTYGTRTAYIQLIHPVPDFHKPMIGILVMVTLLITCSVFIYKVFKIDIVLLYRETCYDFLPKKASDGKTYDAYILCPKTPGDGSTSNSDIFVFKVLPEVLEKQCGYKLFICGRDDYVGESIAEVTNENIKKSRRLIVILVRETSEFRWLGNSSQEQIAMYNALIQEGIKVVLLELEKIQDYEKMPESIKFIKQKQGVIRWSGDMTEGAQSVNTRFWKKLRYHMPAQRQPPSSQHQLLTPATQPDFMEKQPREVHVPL
Procedure: In another experiment, vasomotricity variation of piglets pial vessels was studied to further evaluate the particular effect of cytokine receptor subfragments on the vasodilatator effect of IL-1β. Brains were dissected from Yorkshire piglets. Slices of brain exposing the pial vessels were pinned to a wax base of a 20 ml bath containing Krebs buffer (pH 7.4) equilibrated with 95% O2-5% CO2 and maintained at 37° C. Microvessels were visualized and recorded using a video camera mounted on a dissecting microscope. Vascular diameter was measured using a digital image analyzer and the images were recorded before and after topical application of constricting agent U46619 at 10^−7M. After stabilization of the vasomotricity, IL-1 ? was added until stabilization of vasodilatation. Peptides were then injected at different concentrations from 10^−10 to 10^−5M. Reversal of vasodilatation (i.e., vasoconstriction) was visualized and measured as described above. IL-1 ? induced vasodilatation in the microvasculature of the piglet brain was observed. Examples of the inhibitory activity of cytokine subfragment peptides are given below.

IL-1R/IL-1RacP [2] = test: IL-1β-induced cGMP production in brain tissues ex vivo
Procedure: For these newly derived peptides, ex vivo experiments were then conducted. Brain tissues were incubated with the peptides and IL-1β and cGMP was measured with a commercial kit (Amersham Bioscience, cGMP assay biotrack™ system). API-101.10 already inhibited 85% of IL-1β-induced cGMP production (10^−6M) and API-101.103 and 101.106 inhibited more than 90% of cGMP production. Thus, removal of the negative charge of the glutamate and removal of the threonine can improve the potency of the antagonist.

potency relative to API-101 (IL-1R/IL-1RacP [1]): 100 fold
SMILES: CC(C)C[C@@H](NC(=O)[C@@H](CCC(=O)O)NC(=O)[C@H](NC(=O)[C@H](NC(=O)[C@@H](Cc1ccc(O)cc1)NC(=O)[C@H](N)CCCNC(=N)N)[C@H](C)O)C(C)C)C(=O)N[C@H](C)C(N)=O [API-101.10, RYTVELA] (H-[dR][dY][dT][dV][dE][dL][dA]-NH2; N-terminus and C-terminus assumed)
inhibition of IL-1β-induced cGMP production (IL-1R/IL-1RacP [2]; brain tissues, 10^−6M): 85%
activity compared with Kineret (IL-1R/IL-1RacP [2]; data not shown): superior
